Laboratory results from article PMC9252884 (Biomolecules & Therapeutics, 2022).

Target: TrkA (tropomyosin receptor kinase A) (Homo sapiens, UniProt P04629)
Test: TR-FRET
Assay type: biochemical

Chain of TrkA (tropomyosin receptor kinase A) (P04629 441-796 limits assumed): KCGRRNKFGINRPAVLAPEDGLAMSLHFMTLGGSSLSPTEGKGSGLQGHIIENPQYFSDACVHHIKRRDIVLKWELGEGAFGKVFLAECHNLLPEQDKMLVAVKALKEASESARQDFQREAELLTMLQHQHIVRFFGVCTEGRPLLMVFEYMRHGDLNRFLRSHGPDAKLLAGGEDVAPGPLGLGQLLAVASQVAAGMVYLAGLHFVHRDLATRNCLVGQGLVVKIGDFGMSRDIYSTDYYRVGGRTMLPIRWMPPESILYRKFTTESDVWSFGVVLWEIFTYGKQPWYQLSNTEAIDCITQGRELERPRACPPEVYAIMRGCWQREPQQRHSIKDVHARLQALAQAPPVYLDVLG

IC50: 43.3 nM
Structure (SMILES): Nc1ncc(-c2cnn(C3CCNCC3)c2)cc1-c1nc2ccccc2o1 [KRC-108, 3-(benzo[d]oxazol-2-yl)-5-(1-(piperidin-4-yl)-1H-pyrazol-4-yl)pyridin-2-amine]
